Test results published in patent US20240382485A1, “METHODS OF TREATING ABNORMAL CELL GROWTH” (Verastem, Inc., priority 2021, published 2024).

Assays:
Experiment in all cases: 2D proliferation assay (CellTiter-Glo) with synergy analysis
[1] = system: H358 human non-small cell lung cancer (NSCLC) cells; type: cell-based; conditions: for effect of doxycycline or minocycline on anti-tumor potency: 2D culture, 7 days, CellTiter-Glo; for synergy with antibiotics in the inhibition of tumor cell proliferation: with doxycycline or minocycline, H358, FIG. 3, Bliss, Loewe, HSA and ZIP analysis
Experimental: (§1) Anti-proliferative effects of an antibiotic agent such as doxycycline (e.g., 5 or 10 μM) or minocycline (e.g., 1.25 μM) in combination with VS-6766 (e.g., 40 nM) or defactinib (e.g., 1 μM) were tested in 2D culture in 3 different human tumor cell lines.
(§2) Human cancer cell lines were grown in 2D conditions. Briefly, cells were seeded in 100 μL of growth medium. After an overnight incubation (17-22 hours), cells were treated with VS-6766+/−minocycline or doxycycline for 7 days. Alternatively, cells were treated with defactinib+/−doxycycline for 7 days. Cell viability was measured using the cell viability CellTiter-Glo assay.
Raw data and metadata files were processed with a custom R-script for single agent and combination activity. Bliss, Loewe, Highest Single Agent (HSA) and ZIP synergy analysis were performed to generate a composite synergy score (e.g., see Malyutina A et al, “Drug combination sensitivity scoring facilitates the discovery of synergistic and efficacious drug combinations in cancer,” PLOS Computational Biology 15 (5): e1006752). Summary graphics and reports were saved for visualization and further analysis.
(§3) For example, consider that drug 1 at concentration x1 and drug 2 at concentration x2 were combined to produce the inhibition effect of yc, while their respective single drug effects were y1(x1) and y2(x2). The synergy score was calculated as the difference between yc and the expected effect ye if there is no synergy. Each synergy scoring takes a different model for ye: • 1. HSA: ye is the maximal single drug effect, defining
Dose-response matrices were used to assess anti-proliferative effects of the combination of VS-6766+/−minocycline or doxycycline, and the combination of defactinib+/−doxycycline. […] H358 human non-small cell lung cancer (NSCLC) cells were grown in 2D conditions. Cells were treated with VS-6766+/−minocycline or doxycycline for 7 days. Alternatively, cells were treated with defactinib+/−doxycycline for 7 days. Cell viability was measured using the cell viability CellTiter-Glo assay.
Synergy scores were calculated using a combination of 4 different methods (Bliss, Loewe, HSA and ZIP). Human cancer cell lines were run in a CTG proliferation assay. Raw data and metadata files were processed with a custom R-script for single agent and combination activity. Bliss, Loewe, Highest Single Agent (HSA) and ZIP synergy analysis were performed to generate a composite synergy score. The example used in this figure is VS-6766+doxycycline in H358 cells.
H358 human NSCLC cells were run in a CTG proliferation assay. Raw data and metadata files were processed with a custom R-script for single agent and combination activity. Bliss, Loewe, Highest Single Agent (HSA) and ZIP synergy analysis were performed to generate a composite synergy score. […]

[2] = system: H2122 NSCLC; type: cell-based, human; conditions: VS-6766+doxycycline, H2122, FIG. 4; Bliss, Loewe, HSA and ZIP analysis
Experimental: as §1, §2
(§4) Raw data and metadata files were processed with a custom R-script for single agent and combination activity. Bliss, Loewe, Highest Single Agent (HSA) and ZIP synergy analysis were performed to generate a composite synergy score (e.g., see Malyutina A et al, “Drug combination sensitivity scoring facilitates the discovery of synergistic and efficacious drug combinations in cancer,” PLOS Computational Biology 15 (5): e1006752). […]
as §3, with “Each synergy scoring takes a different model for ye: • 1. HSA: ye is the maximal single drug effect, defining” left out

[3] = system: TOV21G ovarian cancer; type: cell-based, human; conditions: VS-6766+doxycycline, FIG. 4, Bliss, Loewe, HSA and ZIP analysis
Experimental: as §1, §2, §4
as §3, with “Each synergy scoring takes a different model for ye: • 1. HSA: ye is the maximal single drug effect, defining” left out

SMILES | effect of doxycycline or minocycline on anti-tumor potency [1] | synergy with antibiotics in the inhibition of tumor cell proliferation [1] | synergy in the inhibition of tumor cell proliferation [2] | synergy in the inhibition of tumor cell proliferation [3]
CNC(=O)c1ccc(Nc2ncc(C(F)(F)F)c(NCc3nccnc3N(C)S(C)(=O)=O)n2)cc1 [defactinib, reference compound] | increased anti-tumor potency | synergistic | – | –
CNS(=O)(=O)Nc1nccc(Cc2c(C)c3ccc(Oc4ncccn4)cc3oc2=O)c1F [VS-6766] | increased anti-tumor potency | synergistic | synergistic effect | synergistic effect
